Earlier results in US9884844B2 (priority 2012, dated 2018).

Details: rather increase it at high dose

## O=C1NCN(c2ccccc2)C12CCN([C@@H]1CC[C@H]3CCCc4cccc1c43)CC2 [Ro64-6198]
  effect on alcohol drinking: failed to decrease alcohol drinking
